Literature values in patent publication US6552014B2, “Methods of inhibiting platelet activation with selective serotonin reuptake inhibitors” (HeartDrug Research, L.L.C., priority 1999, dated 2003).
Where a name gives a salt, the structure may show the parent alone.

How the values were obtained:
Conditions in all cases: cited from earlier work
serotonin 5-HT2 receptor = tested on: serotonin 5-HT2 receptor
[1] = tested on: serotonin 5-HT3 receptors
[2] = tested on: central 2 alpha-adrenergic autoreceptors, and heteroreceptors

Row | Compound | antagonism of serotonin 5-HT2 receptor, in words (serotonin 5-HT2 receptor) | antagonism of serotonin 5-HT3 receptors, in words [1] | antagonism of central 2 alpha-adrenergic autoreceptors and heteroreceptors, in words [2]
1 | CCc1nn(CCCN2CCN(c3cccc(Cl)c3)CC2)c(=O)n1CCOc1ccccc1 [Nefazodone, 2-[3-[4-(3-chlorophenyl)-1-piperazinyl]propyl]-5-ether-2,4-dihydro-4-(2-phenoxyethyl)-3H-1,2,4-triazol-3-one monohydrochloride] | potent serotonin 5-HT2 receptor antagonist | – | –
2 | CN1CCN2c3ncccc3Cc3ccccc3C2C1 (stereo not shown) [Mirtazapine] | antagonist | antagonist | potent antagonist
